Entries after “also recorded” stand apart in the source; their conditions may differ.
Experiments:
[1] = tested on: PD-1/PD-L1 blockade, Jurkat effector cells / CHO/TCRAct/PD-L1 cells; experiment: Immune checkpoint blockade (ICB) assay (Promega): Jurkat ECs co-cultured with CHO/TCRAct/PD-L1 cells, NFAT luciferase readout; assay type: cell-based, human; conditions: for Activation of Jurkat ECs compared with BMS-1166: 5 µM, p < 0.001 vs BMS-1166; for Activation of Jurkat ECs in the ICB assay: 6 h co-culture, fold induction vs control; for Promega Assay (active / not active): cell-based PD-1/PD-L1 blockade bioassay
Method: In order to explore the bioactivity of the synthesized compounds, a well-recognized immune checkpoint blockade (ICB) assay was performed. In the assay, artificial T cells, the Jurkat effector cells (Jurkat ECs), i.e., the Jurkat T cells overexpressing PD-1 and luciferase-coding gene under the control of the TCR-inducible NFAT response element, are contacted with artificial antigen-presenting CHO/TCRAct/PD-L1 cells, as illustrated in [31]. The latter is the CHO cells equipped with the TCR activator molecule, which delivers activation of Jurkat ECs, and also the PD-L1 protein, which provides a negative signal towards the activation of Jurkat ECs. Upon the blockade of the PD-1/PD-L1 interaction, activation of Jurkat ECs is increased, as we have shown before for several classes of therapeutic antibodies and small molecules.
The human PD-L1-expressing CHO-K1 cells overexpressing TCR activator (CHO/TCRAct/PD-L1) cells and Jurkat ECs T cells overexpressing PD-1 and carrying a luciferase reporter gene under the control of the Nuclear Factor of Activated T cells Response Element (NFAT-RE) were obtained from Promega and cultured in an RPMI-1640 medium (Biowest, Nuaillé, France) supplemented with 10% fetal bovine serum (FBS, Biowest, Nuaillé, France) and […] L-glutamine (Biowest, Nuaillé, France). G418 (250 µg/mL, InvivoGen, San Diego, CA, USA) and Hygromycin B Gold (50 µg/mL, InvivoGen, San Diego, CA, USA) were also added to the culture medium as selection antibiotics. CAKI 2, LNCap, PC-3, and MDA-MB-231 cells were purchased from the European Collection of Authenticated Cell Cultures (ECACC) and cultured according to the provided protocol.
For the analysis of biological activity of the analyzed compounds, an immune checkpoint blockade (ICB) assay was performed. For this, the culture of Jurkat effector cells (Jurkat-ECs) and […] was carried out. The assay was performed according to the protocol described in our previous works. All the experiments were performed three times as independent experiments.
Figure 2 Bioactivity of the indicated compounds. (A,B) The activity was monitored with a cell-based immune checkpoint blockade (ICB) assay. Jurkat ECs were contacted with pre-seeded CHO/TCRAct/PD-L1 cells in the presence of the indicated concentrations of the compounds (A) or durvalumab (B) as a positive control. The cells were co-cultured for 6 h and the luminescence signal was measured following the addition of the Bio-Glo substrate. The graphs show fold induction calculated versus either DMSO-treated (for small molecules) or untreated (for durvalumab) control (ctrl) cells. The results are mean ± SD from three independent experiments. […] (C) Analysis of the expression of PD-L1 in four human cancer cell lines compared to PD-L1-overexpressing CHO/TCRAct/PD-L1 cells. (D) Analysis of the expression of PD-L1 in MDA-MB-231 cells treated with either 4 or 5 compounds for 6 or 24 h.

[2] = biological target: T1, PD-1/PD-L1 complex (Homo sapiens, UniProt Q9NZQ7); experiment: HTRF (homogeneous time-resolved fluorescence) PD-1/PD-L1 binding assay (Cis-Bio); conditions: for inhibition at 0.5 µM: 0.5 µM ligand, read-out: HTRF: Percentage of the Dissociated PD-1/PD-L1 Complex, 0.5 µM Ligand Conc.; for inhibition at 0.5 µM / inhibition at 5 µM: 5 nM hPD-L1, 50 nM hPD-1; for inhibition at 5 µM: 5 µM ligand, read-out: HTRF: Percentage of the Dissociated PD-1/PD-L1 Complex, 5 µM Ligand Conc.; for IC50: six ligand concentrations, two dilution series
T1 construct: purchased Cis-Bio
Method: To validate the activity toward PD-L1 of our compounds, we carried out an HTRF (homogeneous time-resolved fluorescence) experiment at two concentrations of the ligand (5 µM and 0.5 µM) (Table 1).
HTRF was carried out using a certified Cis-Bio assay according to the manufacturer’s guidelines. The experiments were carried out at 5 nM of h-L1 and 50 nM of hPD-1 in the final formulation at the 20 µL final volume in the well. To determine the half maximal inhibitory concentrations (IC50) of the tested compounds, the measurements were carried out on two individual dilution series unless stated otherwise. After mixing all the components according to the Cis-Bio protocol, the plate was left for 2 h incubation at room temperature followed by the TR-FRET measurement on a Tecan Spark 20M. […] The collected data was background-subtracted from the negative control, normalized on the positive control, averaged, and fitted with the normalized Hill’s equation to determine the IC50 value using Mathematica 12 (Princeton, NJ, USA).

[3] = biological target: T2, PD-L1 protein (Homo sapiens, UniProt Q9NZQ7); experiment: 1H NMR binding analysis, PD-L1 protein titrated with ligand; conditions: for Protein precipitation during NMR titration: 1H NMR titration, compound 6 at protein–ligand ratio 1:10; for Binding to PD-L1 by 1H NMR titration: PBS pH 7.4, 300 K, protein–ligand ratios up to 1:10
T2 construct: PD-L1 gene (amino acids 18–239); made in house; host or cells: E. coli BL21
Method: Apart from the HTRF assay, we performed the NMR [33, 34] binding analysis by recording the ^1H spectrum of the PD-L1 protein titrated with compound 4 (Figure 1).
The E. coli strain BL21 was transformed with a pET-21b plasmid carrying the PD-L1 gene (amino acids 18–239). The bacteria were cultured in LB at 37 °C until OD600nm of 0, 6 when the recombinant protein production was induced with 1 mM IPTG. The protein production continued overnight. The inclusion bodies were collected by centrifugation, washed twice with 50 mM Tris HCl, pH 8.0, containing 200 mM NaCl, 10 mM EDTA, 10 mM 2-mercaptoethanol, and 0.5% Triton X-100, followed by a single wash with the same buffer but with no Triton X-100. The washed inclusion bodies were resuspended overnight in 50 mM Tris HCl, pH 8.0, 6 M GuHCl, 200 mM NaCl, and 10 mM 2-mercaptoethanol and clarified with centrifugation. Refolding of PD-L1 was performed by dropwise dilution into 0.1 M Tris HCl, pH 8.0, containing 1 M L-arginine hydrochloride, 0.25 mM oxidized glutathione, and 0.25 mM reduced glutathione. The refolded protein was dialyzed three times against 10 mM Tris HCl, pH 8.0, containing 20 mM NaCl and purified by size exclusion chromatography using Superdex 75 and a dialysis buffer. The quality of the refolded protein was evaluated by SDS-PAGE and NMR.
NMR spectra were recorded in PBS, pH 7.4, containing 10% (v/v) of D2O added to the samples to provide the lock signal. Water suppression was carried out using the WATERGATE sequence. All the spectra were recorded at 300 K using a Bruker Avance 600 MHz spectrometer with the Cryo-Platform. The NMR spectrum was recorded at three different ligand/protein ratios from 0 to 10. The samples were prepared by adding small amounts of a 50 mM ligand stock solution in DMSO to the protein solution (0.20 mL) of the PD-L1 fragment at a concentration of 0.14 mM. The acquisition parameters for each spectrum were as follows: size of FID32768, number of scans: 32. The spectra were visualized using TopSpin 4.0.2. (Bruker, Billerica, MA, USA)

T2 sequence (Q9NZQ7 18-239): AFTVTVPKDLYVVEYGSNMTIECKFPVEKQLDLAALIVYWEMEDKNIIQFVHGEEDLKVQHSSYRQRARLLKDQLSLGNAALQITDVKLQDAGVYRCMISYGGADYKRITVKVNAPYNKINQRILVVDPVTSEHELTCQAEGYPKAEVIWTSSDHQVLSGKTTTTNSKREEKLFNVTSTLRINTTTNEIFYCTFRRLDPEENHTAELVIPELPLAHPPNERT
T1 sequence (Q9NZQ7 19-238 limits assumed, one chain of several): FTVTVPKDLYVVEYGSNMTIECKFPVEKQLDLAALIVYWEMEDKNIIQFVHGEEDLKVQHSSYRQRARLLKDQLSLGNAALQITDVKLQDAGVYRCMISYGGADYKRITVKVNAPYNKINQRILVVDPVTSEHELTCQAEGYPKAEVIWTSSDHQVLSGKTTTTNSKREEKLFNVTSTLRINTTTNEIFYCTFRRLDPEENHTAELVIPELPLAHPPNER

inhibition at 0.5 µM [2] | inhibition at 5 µM [2] | IC50 [2] | Protein precipitation during NMR titration [3] | Binding to PD-L1 by 1H NMR titration [3] | Structure (SMILES) | Activation of Jurkat ECs compared with BMS-1166 [1] | Activation of Jurkat ECs in the ICB assay [1] | Promega Assay (active / not active) [1]
66.3% | 100% | 0.64 ± 0.02 µM | not observed | bind to the PD-L1 protein | COc1nc(OCc2cccc(-c3ccccc3)c2C)ccc1CNCCCNc1cccc2c1C(=O)N(C1CCC(=O)NC1=O)C2=O (stereo not shown) [compound 5, 2-(2,6-dioxopiperidin-3-yl)-4-((3-(((2-methoxy-6-((2-methyl-[1,1′-biphenyl]-3-yl)methoxy)pyridin-3-yl)methyl)amino)propyl)amino)isoindoline-1,3-dione] | significantly higher levels of the activation of Jurkat ECs | able to increase the activation of Jurkat ECs; also recorded: significantly restore the repressed immunity | Active
18.2% | 88.8% | 1.32 ± 0.04 µM | not observed | bind to the PD-L1 protein | COc1nc(OCc2cccc(-c3ccccc3)c2C)ccc1CNCC1CCN(CC(=O)Nc2cccc3c2C(=O)N(C2CCC(=O)NC2=O)C3=O)CC1 (stereo not shown) [compound 4, N-(2-(2,6-dioxopiperidin-3-yl)-1,3-dioxoisoindolin-4-yl)-2-(4-((((2-methoxy-6-((2-methyl-[1,1′-biphenyl]-3-yl)methoxy)pyridin-3-yl)methyl)amino)methyl)piperidin-1-yl)acetamide] | significantly higher levels of the activation of Jurkat ECs | able to increase the activation of Jurkat ECs; also recorded: significantly restore the repressed immunity | Active
